Measurements from publication PMC11866408, “LOPAC library screening identifies suramin as a TRIM21 binder with a unique binding mode revealed by crystal structure” (Acta Crystallographica Section F: Structural Biology …, 2025).

Legend:
[1] = target: T1, TRIM21 PRYSPRY domain (mouse) (Mus musculus, UniProt Q62191); experiment: co-crystal structure at […] Å; ITC; assay type: binding
T1 construct: PRYSPRY domain, residues Val291–Met470, N-terminal His6-tag
T1 sequence (Q62191 291-470): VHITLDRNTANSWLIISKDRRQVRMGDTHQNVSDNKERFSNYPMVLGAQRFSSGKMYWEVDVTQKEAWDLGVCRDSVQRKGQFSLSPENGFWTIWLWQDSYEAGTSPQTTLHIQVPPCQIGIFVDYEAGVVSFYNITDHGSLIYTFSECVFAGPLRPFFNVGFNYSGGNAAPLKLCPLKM

[2] = target: T2, TRIM21 PRYSPRY domain (human) (Homo sapiens, UniProt P19474); experiment: ITC; DSF shift […] K; assay type: binding
T2 construct: PRYSPRY domain, residues Val287–Leu465, His6-SUMO tag cleaved
T2 sequence (P19474 287-465): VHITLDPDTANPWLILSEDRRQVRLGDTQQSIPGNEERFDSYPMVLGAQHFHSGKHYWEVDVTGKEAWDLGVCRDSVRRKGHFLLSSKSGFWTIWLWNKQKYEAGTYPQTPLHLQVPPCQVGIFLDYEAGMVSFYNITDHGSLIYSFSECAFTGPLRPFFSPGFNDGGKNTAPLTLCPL

Cc1ccc(C(=O)Nc2ccc(S(=O)(=O)O)c3cc(S(=O)(=O)O)cc(S(=O)(=O)O)c23)cc1NC(=O)c1cccc(NC(=O)Nc2cccc(C(=O)Nc3cc(C(=O)Nc4ccc(S(=O)(=O)O)c5cc(S(=O)(=O)O)cc(S(=O)(=O)O)c45)ccc3C)c2)c1 [suramin]
Kd [1]: ~9 µM | Kd [2]: ~8 µM
